Literature values as cited in patent US20210123869A1, “METHOD FOR MEASURING PH OF TEST WATER” (MIURA CO., LTD., priority 2018, published 2021).

details: value at 25° C.; two values for reagents acid-dissociated in two stages

Row | acid dissociation constant (pKa) | Molecule
1 | 4.7 | Cc1c(C2(c3cc(Br)c(O)c(Br)c3C)OS(=O)(=O)c3ccccc32)cc(Br)c(O)c1Br [bromocresol green]
2 | 6.3 | Cc1cc(C2(c3cc(C)c(O)c(Br)c3)OS(=O)(=O)c3ccccc32)cc(Br)c1O [bromocresol purple]
3 | 11.06 | alizarin yellow
